# Patent publication US20240174618A1, “SUBSTITUTED (2-HETEROARYLOXYPHENYL)SULFONATES, SALTS THEREOF AND THEIR USE AS HERBICIDAL AGENTS” (Bayer Aktiengesellschaft, priority 2021, published 2024)
# Columns and labels:
# Type in all cases: in vivo
# [1] = tested on: Digitaria sanguinalis (DIGSA); assay: B. Herbicidal post-emergence efficacy, DIGSA; settings: rated visually after about 3 weeks
# Description: (§1) Seeds of mono- and dicotyledonous weed plants were placed in plastic pots in sandy loam soil (doubly sown with in each case one species of mono- or dicotyledonous weed plants per pot), covered with soil and cultivated in a greenhouse under controlled growth conditions. 2 to 3 weeks after sowing, the test plants were treated at the one-leaf stage. The compounds of the invention, formulated in the form of wettable powders (WP) or as emulsion concentrates (EC), were applied onto the green parts of the plants as aqueous suspension or emulsion with addition of 0.5% additive at a water application rate of 600 liters per hectare (converted). After the test plants had been kept in the greenhouse under optimum growth conditions for about 3 weeks, the activity of the preparations was rated visually in comparison to untreated controls.
# (§2) For example, • 100% efficacy=plants have died, • 0% efficacy=like untreated control plants
# (§3) Tables B1a to B12c below show the effects of selected inventive compounds of the general formula (I) according to table 1 on various harmful plants at an application rate corresponding to 1280 g/ha or less, which were obtained by the experimental procedure mentioned above.
# Stellaria media (STEME) [2] = assay: A. Herbicidal pre-emergence efficacy, STEME
# Excerpt: (§4) Seeds of mono- and dicotyledonous weed plants were placed in plastic pots in sandy loam soil (doubly sown with one species each of mono- or dicotyledonous weed plants per pot) and covered with soil. The compounds of the invention, formulated in the form of wettable powders (WP) or as emulsion concentrates (EC), were then applied onto the surface of the covering soil as aqueous suspension or emulsion with addition of 0.5% additive at a water application rate of 600 liters per hectare (converted). After the treatment, the pots were placed in a greenhouse and kept under good growth conditions for the test plants. After about 3 weeks, the efficacy of the preparations was scored visually in comparison with untreated controls as percentages.
# (§5) For example, • 100% efficacy=plants have died, • 0% efficacy=like untreated control plants.
# (§6) Tables A1a to A12c below show the effects of selected compounds of the general formula (I) according to table 1 on various harmful plants at an application rate corresponding to 1280 g/ha or less, which were obtained by the experimental procedure mentioned above.
# Setaria viridis (SETVI) [3] = assay: A. Herbicidal pre-emergence efficacy, SETVI
# Excerpt: as §4, §5, §6
# [4] = tested on: Abutilon theophrasti (ABUTH); assay: B. Herbicidal post-emergence efficacy, ABUTH; settings: rated visually after about 3 weeks
# Description: as §1, §2, §3
# Kochia scoparia (KCHSC) [5] = assay: A. Herbicidal pre-emergence efficacy, KCHSC; settings: pre-emergence
# Excerpt: as §4, §5, §6
# [6] = tested on: Digitaria sanguinalis (DIGSA); assay: A. Herbicidal pre-emergence efficacy, DIGSA; settings: scored visually after about 3 weeks vs untreated controls
# Excerpt: as §4, §5, §6
# Veronica persica (VERPE) [7] = assay: A. Herbicidal pre-emergence efficacy, VERPE
# Excerpt: as §4, §5, §6
# [8] = tested on: Amaranthus retroflexus (AMARE); assay: B. Herbicidal post-emergence efficacy, AMARE
# Description: as §1, §2, §3
# Kochia scoparia (KCHSC) [9] = assay: B. Herbicidal post-emergence efficacy, KCHSC; settings: for Post-emergence efficacy against KCHSC in %: 320 g/ha, rated visually after about 3 weeks; for Post-emergence efficacy against KCHSC: 1280 g/ha
# Description: as §1, §2, §3
# Veronica persica (VERPE) [10] = assay: B. Herbicidal post-emergence efficacy, VERPE
# Description: as §1, §2, §3
# Poa annua (POAAN) [11] = assay: A. Herbicidal pre-emergence efficacy, POAAN
# Excerpt: as §4, §5, §6
# [12] = tested on: Echinochloa crus-galli (ECHCG); assay: A. Herbicidal pre-emergence efficacy, ECHCG; settings: 1280 g/ha; scored visually after about 3 weeks vs untreated controls
# Excerpt: as §4, §5, §6
# [13] = tested on: Echinochloa crus-galli (ECHCG); assay: B. Herbicidal post-emergence efficacy, ECHCG; settings: 1280 g/ha, rated visually after about 3 weeks
# Description: as §1, §2, §3
# Stellaria media (STEME) [14] = assay: B. Herbicidal post-emergence efficacy, STEME
# Description: as §1, §2, §3
# [15] = tested on: Amaranthus retroflexus (AMARE); assay: A. Herbicidal pre-emergence efficacy, AMARE
# Excerpt: as §4, §5, §6
# [16] = tested on: Matricaria inodora (MATIN); assay: A. Herbicidal pre-emergence efficacy, MATIN
# Excerpt: as §4, §5, §6
# Lolium rigidum (LOLRI) = assay: A. Herbicidal pre-emergence efficacy, LOLRI; settings: dosage 1280 g/ha
# Excerpt: as §4, §5, §6
# Poa annua (POAAN) [17] = assay: B. Herbicidal post-emergence efficacy, POAAN; settings: 1280 g/ha
# Description: as §1, §2, §3
# [18] = tested on: Abutilon theophrasti (ABUTH); assay: A. Herbicidal pre-emergence efficacy, ABUTH; settings: 1280 g/ha; scored visually after about 3 weeks vs untreated controls
# Excerpt: as §4, §5, §6
# Setaria viridis (SETVI) [19] = assay: B. Herbicidal post-emergence efficacy, SETVI; settings: 1280 g/ha
# Description: as §1, §2, §3
# [20] = 320 g/ha, scored visually after about 3 weeks vs untreated controls
# [21] = pre-emergence, dosage 1280 g/ha
Compound,Post-emergence efficacy against DIGSA in % ([1]; 1280 g/ha) [%],Pre-emergence efficacy against STEME (Stellaria media (STEME) [2]; dosage 1280 g/ha) [%],Pre-emergence efficacy against SETVI (Setaria viridis (SETVI) [3]; dosage 320 g/ha) [%],Pre-emergence efficacy against SETVI (Setaria viridis (SETVI) [3]; dosage 1280 g/ha) [%],Post-emergence efficacy against ABUTH in % ([4]; 1280 g/ha) [%],Pre-emergence efficacy against KCHSC (Kochia scoparia (KCHSC) [5]; dosage 1280 g/ha) [%],Pre-emergence efficacy against DIGSA ([6]; 1280 g/ha) [%],Pre-emergence efficacy against VERPE in % (Veronica persica (VERPE) [7]; 1280 g/ha) [%],Post-emergence efficacy against AMARE ([8]; 320 g/ha) [%],Post-emergence efficacy against AMARE ([8]; 1280 g/ha) [%],Post-emergence efficacy against KCHSC in % (Kochia scoparia (KCHSC) [9]) [%],Post-emergence efficacy against KCHSC (Kochia scoparia (KCHSC) [9]) [%],Post-emergence efficacy against VERPE (Veronica persica (VERPE) [10]; 320 g/ha) [%],Post-emergence efficacy against VERPE (Veronica persica (VERPE) [10]; 1280 g/ha) [%],Pre-emergence efficacy against POAAN (Poa annua (POAAN) [11]; dosage 320 g/ha) [%],Pre-emergence efficacy against POAAN (Poa annua (POAAN) [11]; dosage 1280 g/ha) [%],Pre-emergence efficacy against ECHCG [12] [%],Post-emergence efficacy against STEME (Stellaria media (STEME) [14]; 1280 g/ha) [%],Pre-emergence efficacy against AMARE in % ([15]; 320 g/ha) [%],Pre-emergence efficacy against AMARE in % ([15]; 1280 g/ha) [%],also measured
O=S(=O)(CCCC(F)(F)F)Oc1ccccc1Oc1ccc(Cl)cn1 [Example I-26],90,90,90,100,90,90,100,100,90,90,90,90,90,90,90,100,90,90,90,100,Post-emergence efficacy against ECHCG in % [13]: 90%
O=S(=O)(CCC1CC1(Cl)Cl)Oc1c(F)cccc1Oc1ncc(Cl)cn1 (centres unmarked) [Example I-51],–,100,90,90,90,100,100,100,90,90,–,90,–,90,–,100,90,90,100,100,"Pre-emergence efficacy against MATIN [16, 20]: 90%; Pre-emergence efficacy against MATIN [16, 21]: 90%; Pre-emergence efficacy against LOLRI (Lolium rigidum (LOLRI)): 90%; Pre-emergence efficacy against STEME (Stellaria media (STEME) [2]; dosage 320 g/ha): 90%; Post-emergence efficacy against ABUTH in % ([4]; 320 g/ha): 90%; Pre-emergence efficacy against DIGSA ([6]; 320 g/ha): 90%; Post-emergence efficacy against AMARE ([8]; 80 g/ha): 90%; Post-emergence efficacy against POAAN (Poa annua (POAAN) [17]): 90%; Post-emergence efficacy against ECHCG in % [13]: 90%; Post-emergence efficacy against STEME (Stellaria media (STEME) [14]; 80 g/ha): 90%; Post-emergence efficacy against STEME (Stellaria media (STEME) [14]; 320 g/ha): 90%; Pre-emergence efficacy against AMARE in % ([15]; 80 g/ha): 90%"
N#Cc1cc(Cl)cnc1Oc1ccccc1OS(=O)(=O)CCCCl [Example I-59],90,100,100,100,90,100,100,100,90,90,90,90,90,90,100,100,100,90,100,100,"Pre-emergence efficacy against MATIN [16, 20]: 90%; Pre-emergence efficacy against MATIN [16, 21]: 100%; Post-emergence efficacy against DIGSA in % ([1]; 320 g/ha): 90%; Pre-emergence efficacy against ABUTH [18]: 90%; Pre-emergence efficacy against LOLRI (Lolium rigidum (LOLRI)): 90%; Pre-emergence efficacy against STEME (Stellaria media (STEME) [2]; dosage 80 g/ha): 90%; Pre-emergence efficacy against STEME (Stellaria media (STEME) [2]; dosage 320 g/ha): 100%; Post-emergence efficacy against ABUTH in % ([4]; 320 g/ha): 90%; Pre-emergence efficacy against KCHSC (Kochia scoparia (KCHSC) [5]; dosage 320 g/ha): 100%; Pre-emergence efficacy against DIGSA ([6]; 320 g/ha): 100%; Pre-emergence efficacy against VERPE in % (Veronica persica (VERPE) [7]; 320 g/ha): 90%; Post-emergence efficacy against AMARE ([8]; 80 g/ha): 90%; Post-emergence efficacy against VERPE (Veronica persica (VERPE) [10]; 80 g/ha): 90%; Post-emergence efficacy against POAAN (Poa annua (POAAN) [17]): 90%; Post-emergence efficacy against SETVI (Setaria viridis (SETVI) [19]): 90%; Post-emergence efficacy against STEME (Stellaria media (STEME) [14]; 320 g/ha): 90%; Pre-emergence efficacy against AMARE in % ([15]; 80 g/ha): 100%"
